Reference: patent US8927599B2, “Use of statins as anticonvulsants, antiepileptics and neuroprotectors” (Neuron Biopharma, S.A., priority 2008, dated 2015)
Like-named read-outs stand apart in the source and are kept apart here.

Columns and labels:
[1] = tested on: male mice of the FVB/N strain inoculated with kainate (KA); assay: Kainate-induced convulsions and status epilepticus, lovastatin (Example 10); type: in vivo; conditions: KA 25 mg/kg i.p., 50 mg/kg i.p. at 24 and 0.5 h before KA
Description: (§1) All the animals included during the experimental process were 12 week old male mice of the FVB/N strain [Taconic Farms, Inc. (www.taconic.com)]. The experiments were carried out strictly following the Guidance on the Operation of Animals (Scientific Procedures, Act. 1986). The animals had their respective quarantine period and were treated with maximum precaution to minimize possible contaminations during inoculations and handling.
The mice, distributed into different groups, were intraperitoneally inoculated with 25 mg/kg of KA dissolved in PBS, according to the following protocol: • five mice were pretreated, at 24 and 0.5 hours before the inoculation with KA, with PBS by means of intraperitoneal (i.p.) injection; and • five animals were pretreated, at 24 and 0.5 hours before the inoculation with KA, with lovastatin at a dose of 50 mg/kg by means of i.p. injection
After the inoculation with KA, the animals were individually housed in cages to monitor them. The maximum epilepsy level of the animals was recorded every 10 minutes during the observation according to the Racine scale and for at least 120 minutes post-inoculation (m.p.i.). Comparative studies of the epilepsy levels between the treatment with PBS and with lovastatin (FIG. 12) were subsequently conducted. […]

[2] = tested on: male mice of the FVB/N strain inoculated with kainate (KA); assay: Kainate-induced convulsions, epilepsy level on the Racine scale and latency (Example 1); type: in vivo; conditions: for time of the onset of the first convulsion (latency): KA 30 mg/kg i.p., FIG. 1
Description: as §1, with “16” for “12”
The animals, distributed into different groups, were intraperitoneally inoculated with 30 mg/kg of kainate (KA) dissolved in phosphate buffer saline (PBS), according to the following protocol: • seven animals were pretreated, at 24 and 0.5 hours before the inoculation with KA, with PBS by means of intraperitoneal (i.p.) injection; • six animals were pretreated, at 24 and 0.5 hours before the inoculation with KA, with simvastatin at a dose of 50 mg/kg by means of i.p. injection; and • four animals were pretreated, at 24 and 0.5 hours before the inoculation with KA, with DNQX (a specific inhibitor of KA receptors) at a dose of 30 mg/kg, by means of i.p. injection.
(§2) After the inoculation with KA, the animals were individually housed in cages to monitor them. The maximum epilepsy level of the animals was recorded every 10 minutes during the observation according to the Racine scale and for at least 120 minutes post-inoculation (m.p.i.).

[3] = tested on: male mice of the FVB/N strain inoculated with kainate (KA); assay: Effect of the route of administration, kainate model (Example 3); type: in vivo; conditions: FIG. 5
Description: As shown in Examples 1 and 2, simvastatin has antiepileptic properties and such properties depend on the dose at which said compound is administered. Due to these observations, the inventors decided to investigate if the antiepileptic effect of simvastatin would also be modulated by the route of administration. All the animals included during the experimental process were 16 week old male mice of the FVB/N strain. The experiments were carried out strictly following the Guidance on the Operation of Animals (Scientific Procedures, Act. 1986). The animals had their respective quarantine period and were treated with maximum precaution to minimize possible contaminations during inoculations and handling.
The animals, distributed into different groups, were intraperitoneally inoculated with 25 mg/kg of KA dissolved in PBS, according to the following protocol: • three animals were pretreated, at 24 and 0.5 hours before the inoculation with KA, with simvastatin at a dose of 50 mg/kg by means of direct oral administration; and • two animals were pretreated, at 24 and 0.5 hours before the inoculation with KA, with simvastatin at a dose of 50 mg/kg by means of i.p. injection
as §2

[4] = tested on: patient; conditions: cited from earlier work

CC[C@H](C)C(=O)O[C@H]1C[C@@H](C)C=C2C=C[C@H](C)[C@H](CC[C@@H]3C[C@@H](O)CC(=O)O3)[C@H]21 [lovastatin]
entrance into status epilepticus ([1]; PBS 3 of 5): 0 of 5
epilepsy symptoms (Racine scale) at the end of the observation time ([1]; PBS+KA about 3, p-value=0.00059, FIG. 12): completely reduced the epilepsy symptoms

CCC(C)(C)C(=O)O[C@H]1C[C@@H](C)C=C2C=C[C@H](C)[C@H](CC[C@@H]3C[C@@H](O)CC(=O)O3)[C@H]21 [simvastatin]
time of the onset of the first convulsion (latency) ([2]; pretreated 50 mg/kg i.p. at 24 and 0.5 h before KA): 50.0 ± 11.8 min
mean epilepsy level (Racine scale) ([2]; after 30 m.p.i. of KA 30 mg/kg, 50 mg/kg i.p. pretreatment, FIG. 2): ≤ 4
epileptic level (Racine scale) ([3]; 50 mg/kg direct oral administration, reached at 100 m.p.i. and maintained until 120 m.p.i., KA 25 mg/kg): 2
epileptic level (Racine scale) ([3]; 50 mg/kg i.p., 70 m.p.i. of KA 25 mg/kg): 2
epileptic level (Racine scale) ([3]; 50 mg/kg i.p., 120 m.p.i. of KA 25 mg/kg): 1

CC(C)c1nc(N(C)S(C)(=O)=O)nc(-c2ccc(F)cc2)c1/C=C/[C@@H](O)C[C@@H](O)CC(=O)O [rosuvastatin]
adverse event after administration to a patient ([4]; Lorenzoni et al., Arq Neuropsiquiatr. 2007): severe rhabdomyolysis with convulsions and coma

O=[N+]([O-])c1cc2nc(O)c(O)nc2cc1[N+](=O)[O-] [DNQX]
time of the onset of the first convulsion (latency) ([2]; pretreated 30 mg/kg i.p. at 24 and 0.5 h before KA): 23.3 ± 7.6 min
epilepsy level (Racine scale) versus PBS ([2]; after 30 m.p.i. of KA 30 mg/kg, 30 mg/kg i.p. pretreatment, FIG. 3): prevents the increase of the epileptic levels

CC(C)n1c(/C=C/C(O)CC(O)CC(=O)O)c(-c2ccc(F)cc2)c2ccccc21 (centres unmarked) [fluvastatin]
adverse event after administration to a patient ([4]; patient with catastrophic antiphospholipid syndrome, Miesbach et al., J Neurol Sci. 2005): focal convulsions
